Results from patent US20250345317A1, “New pharmaceutical compounds, methods and uses thereof” (BBIT-THERAPEUTICS, LDA., priority 2020, published 2025).
One block for each molecule: values may come before it.

How the values were obtained:
Assay type in all cases: cell-based, human
HCC1937 (5382insC) = experiment: Growth inhibition, SRB assay, HCC1937; settings: Homo sapiens, HCC1937, 48 h, HCC1937, BRCA1 mutant, 48 hours (second Table 2)
Excerpt: (§1) Table 2 refers to the growth inhibitory effect of COMP, olaparib and cisplatin (CDDP) in a panel of human immortalized breast (T47D, MCF-7, MDA-MB-231, MDA-MB-468, SK-BR-3 and HCC1937), ovarian and endocervical (OCVAR, SKOV-3, […],IGROV-1 and HeLa), pancreatic (PANC-1 and MIAPACA), neuroblastoma (SHSY-5Y), lung (NCI-H460), prostate (VCaP) melanoma (A375 and SK-MEL-5) and glioblastoma (SF-208) cancer cells, immortalized normal MCF10a and HFF1 human cells, and patient-derived ovarian (PD-OVCA #1, #9, #41, #49 and #62) cancer cells. […] Data are mean±SEM (n=5).
(§2) In an embodiment, IC50 values were determined by Sulforhodamine B (SRB) or MTS [3-(4,5-dimethylthiazol-2-yl)-5-(3-carboxymethoxyphenyl)-2-(4-sulfophenyl)-2H-tetrazolium] assay in immortalized and PD-OVCA cells, respectively. Cancer cells were plated in 96-well plates and incubated for 24 hours. Cells were then exposed to serial dilutions of compounds for 48 hours. The solvent DMSO corresponding to the maximum concentration used in these assays (0.025%) was included as control. Results are the mean±S.E.M. of 3-5 independent experiments.

T47D = experiment: Growth inhibition, SRB assay, T47D; settings: Homo sapiens, 48 h, BRCA1 wild-type, 48 hours (second Table 2)
Excerpt: as §1, §2

MCF-7 = experiment: Growth inhibition, SRB assay, MCF-7; settings: Homo sapiens, MCF7, 48 h, MCF-7, BRCA1 wild-type, 48 hours (second Table 2)
Excerpt: as §1, §2

HFF-1 = experiment: Growth inhibition, SRB assay, normal HFF-1 cells; settings: Homo sapiens, HFF-1, 48 h, HFF1 normal cells, 48 hours (second Table 2)
Excerpt: as §1, §2

MDA-MB-231 = experiment: Growth inhibition, SRB assay, MDA-MB-231; settings: Homo sapiens, MDA-MB-231, 48 h, MDA-MB-231, BRCA1 loss of heterozygosity, 48 hours (second Table 2)
Excerpt: as §1, §2

SKOV-3 = experiment: Growth inhibition, SRB assay, SKOV-3; settings: Homo sapiens, SK-OV-3, 48 h, Skov-3, BRCA1 wild-type, 48 hours (second Table 2)
Excerpt: as §1, §2

[1] = tested on: IGROV-1 (mutBRCA1 280delA; mutBRCA2 3320del1); experiment: Growth inhibition, SRB assay, IGROV-1; settings: Homo sapiens, IGROV-1, 48 h, Igrov-1, BRCA1 mutant, 48 hours (second Table 2)
Excerpt: as §1, §2

MDA-MB-468 = experiment: Growth inhibition, SRB assay, MDA-MB-468; settings: Homo sapiens, MDA-MB-468, 48 h, MDA-MB-468, BRCA1 loss of heterozygosity, 48 hours (second Table 2)
Excerpt: as §1, §2

OVCAR-3 = experiment: Growth inhibition, SRB assay, OVCAR-3; settings: Homo sapiens, OVCAR-3, 48 h, OVCAR-3, BRCA1 wild-type, 48 hours (second Table 2)
Excerpt: as §1, §2

SK-BR-3 = experiment: Growth inhibition, SRB assay, SK-BR-3; settings: Homo sapiens, SK-BR-3, 48 h, SK-BR-3, BRCA1 loss of heterozygosity, 48 hours (second Table 2)
Excerpt: as §1, §2

SMILES: CC[C@@H]1CN(C)C2Cc3c([nH]c4ccccc34)[C@@H](OC(=O)C34CC5CC(CC(C5)C3)C4)C[C@H]1[C@@H]2C(=O)OC [BE1]
- IC50 (HCC1937 (5382insC)): > 50 µM
- IC50 (T47D): > 50 µM
- IC50 (MCF-7): > 50 µM
- IC50 (HFF-1): > 50 µM
- IC50 (MDA-MB-231): > 50 µM
- IC50 (SKOV-3): > 50 µM
- IC50 [1]: > 50 µM
- IC50 (MDA-MB-468): > 50 µM
- IC50 (OVCAR-3): > 50 µM
- IC50 (SK-BR-3): > 50 µM

SMILES: CCC1CN(C)[C@H]2Cc3c([nH]c4ccccc34)C(=S)C[C@H]1C2C(=O)OC (stereo partly drawn) [DTHIO]
- IC50 (HCC1937 (5382insC)): > 50 µM
- IC50 (T47D): > 50 µM
- IC50 (MCF-7): > 50 µM
- IC50 (HFF-1): > 50 µM
- IC50 (MDA-MB-231): > 50 µM
- IC50 (SKOV-3): > 50 µM
- IC50 [1]: > 50 µM
- IC50 (MDA-MB-468): > 50 µM
- IC50 (OVCAR-3): > 50 µM
- IC50 (SK-BR-3): > 50 µM

SMILES: CCC1CN(C)[C@H]2Cc3c([nH]c4ccccc34)C(O)C[C@H]1C2C(=O)OC (stereo partly drawn) [DOH]
- IC50 (HCC1937 (5382insC)): > 50 µM
- IC50 (T47D): > 50 µM
- IC50 (MCF-7): > 50 µM
- IC50 (HFF-1): > 50 µM
- IC50 (MDA-MB-231): > 50 µM
- IC50 (SKOV-3): > 50 µM
- IC50 [1]: > 50 µM
- IC50 (MDA-MB-468): > 50 µM
- IC50 (OVCAR-3): > 50 µM
- IC50 (SK-BR-3): > 50 µM

Continued, in another order:

- IC50 (HCC1937 (5382insC)): 32.1 µM
- IC50 (T47D): > 50 µM
- IC50 (MCF-7): > 50 µM
- IC50 (MDA-MB-231): > 50 µM
- IC50 (SKOV-3): > 50 µM
- IC50 (MDA-MB-468): > 50 µM
- IC50 (OVCAR-3): > 50 µM
- IC50 (SK-BR-3): > 50 µM
SMILES: CCC1CN(C)[C@H]2Cc3c([nH]c4ccccc34)/C(=N/N)C[C@H]1[C@@H]2C(=O)OC (stereo partly drawn) [DH1]
- IC50 (HFF-1): > 50 µM
- IC50 [1]: 26 µM

- IC50 (HCC1937 (5382insC)): > 50 µM
- IC50 (T47D): > 50 µM
- IC50 (MCF-7): > 50 µM
- IC50 (MDA-MB-231): 49 µM
- IC50 (SKOV-3): 27.5 µM
- IC50 (MDA-MB-468): 40 µM
- IC50 (OVCAR-3): > 50 µM
- IC50 (SK-BR-3): > 50 µM
SMILES: CCC1CN(C)[C@H]2Cc3c([nH]c4ccccc34)/C(=N/Nc3cnccn3)C[C@H]1[C@@H]2C(=O)OC (stereo partly drawn) [DH3]
- IC50 (HFF-1): 26.5 µM
- IC50 [1]: 24.5 µM

- IC50 (HCC1937 (5382insC)): 19.5 µM
- IC50 (T47D): 27.5 µM
- IC50 (MCF-7): 14.4 µM
- IC50 (MDA-MB-231): 8.7 µM
- IC50 (SKOV-3): 28.7 µM
- IC50 (MDA-MB-468): 15.5 µM
- IC50 (OVCAR-3): 22.2 µM
- IC50 (SK-BR-3): 20.5 µM
SMILES: CC[C@H]1CN(C)C2Cc3c([nH]c4ccccc34)/C(=N/NC(=S)NCc3ccccn3)C[C@H]1[C@@H]2C(=O)OC [DS3]
- IC50 (HFF-1): 18.6 µM
- IC50 [1]: 17.5 µM
